ChEMBL document CHEMBL1201862, “PubChem BioAssay data set” (2004)
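Each compound was tested at five concentrations against cells in 96-well plates for 48 hours. GI50 is the concentration that inhibits growth by half.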 Activity calls are given as the source filed them. No stated cut-off is given here; in the data, active = GI50 up to about 1.1 µM and inactive = higher.

Legend:
Experiment in all cases: DTP human tumour cell line panel, 48 h
SK-OV-3 = system: SK-OV-3
SNB-75 = system: SNB-75
SN12C = system: SN12C
DLD-1 = system: DLD-1
SK-MEL-2 = system: SK-MEL-2
OVCAR-5 = system: OVCAR-5
SF-295 = system: SF-295
NCI-H226 = system: NCI-H226
DMS-273 = system: DMS-273
XF498 = system: XF498
NCI-H23 = system: NCI-H23
UACC-62 = system: UACC-62
KM12 = system: KM12
M19-MEL = system: M19-MEL
NCI-H460 = system: NCI-H460
U-251 = system: U-251
HCT-15 = system: HCT-15
RPMI-8226 = system: RPMI-8226
NCI-H522 = system: NCI-H522
RXF 393 = system: RXF 393
HT-29 = system: HT-29
CAKI-1 = system: CAKI-1
UO-31 = system: UO-31
HOP-92 = system: HOP-92
Malme-3M = system: Malme-3M
KM-20L2 = system: KM-20L2
IGROV-1 = system: IGROV-1
MCF7 = system: MCF7
HL-60 = system: HL-60
A549 = system: A549
SF-268 = system: SF-268
A498 = system: A498
COLO 205 = system: COLO 205
EKVX = system: EKVX
OVCAR-8 = system: OVCAR-8
SNB-19 = system: SNB-19
LOX IMVI = system: LOX IMVI
SF-539 = system: SF-539
SW-620 = system: SW-620
HCC 2998 = system: HCC 2998
HCT-116 = system: HCT-116
CCRF-CEM = system: CCRF-CEM
NCI/ADR-RES = system: NCI/ADR-RES
HOP-18 = system: HOP-18
OVCAR-4 = system: OVCAR-4
K562 = system: K562
OVCAR-3 = system: OVCAR-3
HOP-62 = system: HOP-62
MOLT-4 = system: MOLT-4
UACC-257 = system: UACC-257
SK-MEL-28 = system: SK-MEL-28
SNB-78 = system: SNB-78
SK-MEL-5 = system: SK-MEL-5
DMS-114 = system: DMS-114

Measured: GI50

CCOC(=O)CCc1c(C)c2c(O)cc(O)cc2oc1=O
inactive: SK-OV-3 > 100 µM | SNB-75 > 100 µM | SN12C > 100 µM | DLD-1 > 100 µM | SK-MEL-2 > 76.4 µM | OVCAR-5 > 100 µM | SF-295 > 68.9 µM | NCI-H226 > 87.9 µM | DMS-273 > 100 µM | XF498 > 100 µM | NCI-H23 > 100 µM | UACC-62 > 100 µM | KM12 > 100 µM | M19-MEL > 100 µM | NCI-H460 > 100 µM | U-251 53.8 µM | RPMI-8226 > 100 µM | NCI-H522 > 100 µM | RXF 393 > 78.9 µM | HT-29 > 100 µM | CAKI-1 > 100 µM | UO-31 > 87.1 µM | HOP-92 > 100 µM | Malme-3M > 100 µM | KM-20L2 > 100 µM | IGROV-1 > 100 µM | MCF7 > 100 µM | HL-60 42.1 µM | A549 > 100 µM | SF-268 > 100 µM | A498 > 100 µM | COLO 205 > 100 µM | EKVX > 100 µM | OVCAR-8 > 100 µM | SNB-19 > 84.1 µM | LOX IMVI > 100 µM | SF-539 > 100 µM | SW-620 > 100 µM | HCC 2998 > 100 µM | HCT-116 15.8 µM | CCRF-CEM 26 µM | NCI/ADR-RES > 100 µM | HOP-18 > 80.9 µM | OVCAR-4 > 100 µM | K562 > 100 µM | OVCAR-3 > 100 µM | HOP-62 > 100 µM | MOLT-4 > 54.6 µM | UACC-257 > 100 µM | SK-MEL-28 > 100 µM | SNB-78 > 100 µM | SK-MEL-5 > 100 µM
99.1 µM: HCT-15

Nc1c(S(=O)(=O)O)cc(S(=O)(=O)O)c2ccc(/N=N/c3ccc(/C=C/c4ccc(/N=N/c5ccc6c(S(=O)(=O)O)cc(S(=O)(=O)O)c(N)c6c5O)cc4S(=O)(=O)O)c(S(=O)(=O)O)c3)c(O)c12
inactive: SK-OV-3 97.1 µM | SNB-75 56.9 µM | SN12C > 100 µM | DLD-1 > 100 µM | SK-MEL-2 > 100 µM | OVCAR-5 59.4 µM | DMS-114 > 100 µM | SF-295 > 100 µM | NCI-H226 > 100 µM | DMS-273 > 100 µM | XF498 > 46.6 µM | NCI-H23 > 100 µM | UACC-62 > 100 µM | KM12 > 100 µM | M19-MEL > 100 µM | NCI-H460 > 92.7 µM | U-251 > 100 µM | RPMI-8226 > 100 µM | NCI-H522 54.1 µM | RXF 393 > 85.1 µM | HT-29 > 100 µM | UO-31 37.1 µM | HOP-92 35.6 µM | Malme-3M > 100 µM | KM-20L2 79.4 µM | IGROV-1 90.2 µM | MCF7 > 100 µM | HL-60 36.1 µM | A549 75 µM | SF-268 > 100 µM | A498 > 100 µM | COLO 205 > 100 µM | EKVX > 100 µM | OVCAR-8 > 100 µM | SNB-19 > 100 µM | LOX IMVI > 100 µM | SF-539 > 100 µM | SW-620 > 100 µM | HCC 2998 > 100 µM | HCT-116 > 100 µM | CCRF-CEM > 100 µM | NCI/ADR-RES > 100 µM | HOP-18 > 100 µM | OVCAR-4 > 57.9 µM | K562 > 100 µM | OVCAR-3 > 100 µM | HOP-62 > 100 µM | MOLT-4 > 100 µM | UACC-257 > 100 µM | SK-MEL-28 > 100 µM | SNB-78 > 83.4 µM | SK-MEL-5 > 100 µM
> 73.5 µM: HCT-15
